Where two headings read alike, the source gives them in different places.

These results are taken from US7332506B2, “Substituted-3-indolyl-4-piperidino-alkyl heterocycles for the treatment of depression” (Wyeth, priority 2002, dated 2008).

One data set addresses T1, 5-HT transporter (Rattus norvegicus, UniProt P31652).
T1 construct: from tissue; host or cells: rat frontal cortex membranes (male Sprague-Dawley rats)
Description: Rat Brain 3H-Paroxetine Binding Assay (RB 5HT Transporter). As to the method: Rat Brain ^3H-Paroxetine Binding Assay (RB 5HT Transporter):
This assay was used to determine a compound's affinity of the 5-HT transporter.
A protocol similar to that used by Cheetham et. al. (Neuropharmacol. 1993, 32, 737) was used. Briefly, frontal cortical membranes prepared from male S.D. rats were incubated with ^3H-parxetine (0.1 nM) for 60 min. at 25° C. All tubes also contained either vehicle, test compound (one to eight concentrations), or a saturating concentration of fluoxetine (10 μM) to define […]. All reactions are terminated by the addition of ice cold Tris buffer followed by rapid filtration using a Tom Tech filtration device to separate bound from free ^3H-paroxetine. Bound radioactivity was quantitated using a Wallac 1205 Beta Plate® counter. Nonlinear regression analysis was used to determine IC50 values which were converted to Ki values using the method of Cheng and Prusoff (Biochem. Pharmacol. 1973, 22, 3099);

For the next data set, the target named is T2, human 5-HT1A receptors (Homo sapiens, UniProt P08908).
T2 construct: expressed in transfected cells; host or cells: CHO cells
T2 sequence (P08908 1-422): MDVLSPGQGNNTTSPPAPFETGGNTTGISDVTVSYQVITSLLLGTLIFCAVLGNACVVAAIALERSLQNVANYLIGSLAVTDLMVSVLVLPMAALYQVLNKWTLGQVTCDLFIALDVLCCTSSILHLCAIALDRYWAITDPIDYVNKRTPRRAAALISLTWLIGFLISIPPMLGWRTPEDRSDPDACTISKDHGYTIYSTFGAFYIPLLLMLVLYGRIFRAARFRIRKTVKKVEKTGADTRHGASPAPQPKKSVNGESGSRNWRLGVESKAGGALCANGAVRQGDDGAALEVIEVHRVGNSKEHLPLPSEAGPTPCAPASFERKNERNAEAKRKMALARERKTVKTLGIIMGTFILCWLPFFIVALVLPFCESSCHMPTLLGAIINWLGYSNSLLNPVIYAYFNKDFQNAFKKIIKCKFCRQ
The data set is described as follows: [3H] 8-OH-DPAT displacement from the 5-HT1A serotonin receptor (CHO cells). Format: binding. Conditions: for inhibition at 1 µM: @ 1000 nM, printed in the 5-HT1A Ki column; for Ki: [3H] 8-OH-DPAT displacement, CHO cells with human 5-HT1A receptors, read-out: 5-HT1A Ki. The source says: High affinity for the serotonin 5-HT1A receptor was established by testing the claimed compound's ability to displace [^3H] 8-OH-DPAT (dipropylaminotetralin) from the 5-HT1A serotonin receptor following a modification of the procedure of Hall et al., J. Neurochem. 44, 1685 (1985) which utilizes CHO cells stably transfected with human 5-HT1A receptors.

A further data set deals with T3, Human 5-HT Transporter (Homo sapiens, UniProt P31645).
T3 construct: endogenous in cells; host or cells: Jar cells (human carcinoma), treated with staurosporine
T3 sequence (P31645 whole entry): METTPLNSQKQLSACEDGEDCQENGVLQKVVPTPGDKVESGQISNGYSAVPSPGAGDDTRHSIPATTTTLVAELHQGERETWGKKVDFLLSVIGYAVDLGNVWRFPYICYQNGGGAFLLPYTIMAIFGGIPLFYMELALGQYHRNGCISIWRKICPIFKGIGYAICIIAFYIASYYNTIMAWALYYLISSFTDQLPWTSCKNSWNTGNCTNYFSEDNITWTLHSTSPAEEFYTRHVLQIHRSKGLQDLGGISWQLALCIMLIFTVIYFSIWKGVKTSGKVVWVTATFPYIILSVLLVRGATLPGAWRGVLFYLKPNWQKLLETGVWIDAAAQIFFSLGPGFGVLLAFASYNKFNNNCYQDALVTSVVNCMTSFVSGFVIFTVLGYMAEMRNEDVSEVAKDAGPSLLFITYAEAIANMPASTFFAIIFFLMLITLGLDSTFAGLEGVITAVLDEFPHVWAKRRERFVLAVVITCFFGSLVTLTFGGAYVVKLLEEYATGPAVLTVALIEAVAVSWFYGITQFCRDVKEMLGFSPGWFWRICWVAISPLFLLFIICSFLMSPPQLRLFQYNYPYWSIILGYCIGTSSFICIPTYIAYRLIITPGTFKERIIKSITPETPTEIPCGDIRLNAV
The data set is described as follows: Inhibition of 3H-5-HT Uptake by cells Possessing the Human 5-HT Transporter (HC 5HT Transporter). Type of data set: cell-based. The method, then: [Staurosporine greatly increases the expression of the 5-HT-transporter.] On the day of assay, vehicle, excess of fluoxetine, or test compound is added to various wells on the plate. All wells then receive ^3H-5-HT and are incubated at 37° C. for 5 min. The wells are then washed with ice cold 50 mM Tris HCl (pH 7.4) buffer and aspirated to remove free ^3H-5-HT. 25 μl of 0.25 M NaOH is then added to each well to lyse the cells and 75 μl scintillation cocktail (Microscint™ 20) added prior to quantitation on a Packard TopCount machine. Tubes with vehicle represent total possible uptake, radioactivity counted in tubes with fluoxetine represent nonspecific binding/uptake and is subtracted from the total possible uptake to give total possible specific uptake. This nonspecific binding (usual low in number) is then subtracted from the counts obtained in wells with various test compounds (or different concentrations of test drug) to give specific uptake in the presence of drug. Specific uptake is then expressed as a % of control values and is analyzed using nonlinear regression analysis (Prizm) to determine IC50 values. If the compound is active at inhibiting 5-HT uptake, its counts will be close to that obtained with fluoxetine.

The mark [1] stands for this setting: rat frontal cortical membranes, 3H-paroxetine, read-out: RB 5HT Transporter Ki.
The mark [2] stands for this setting: Jar cells, 3H-5-HT uptake, read-out: HC 5HT Transporter IC50.

T1 sequence (P31652 whole entry): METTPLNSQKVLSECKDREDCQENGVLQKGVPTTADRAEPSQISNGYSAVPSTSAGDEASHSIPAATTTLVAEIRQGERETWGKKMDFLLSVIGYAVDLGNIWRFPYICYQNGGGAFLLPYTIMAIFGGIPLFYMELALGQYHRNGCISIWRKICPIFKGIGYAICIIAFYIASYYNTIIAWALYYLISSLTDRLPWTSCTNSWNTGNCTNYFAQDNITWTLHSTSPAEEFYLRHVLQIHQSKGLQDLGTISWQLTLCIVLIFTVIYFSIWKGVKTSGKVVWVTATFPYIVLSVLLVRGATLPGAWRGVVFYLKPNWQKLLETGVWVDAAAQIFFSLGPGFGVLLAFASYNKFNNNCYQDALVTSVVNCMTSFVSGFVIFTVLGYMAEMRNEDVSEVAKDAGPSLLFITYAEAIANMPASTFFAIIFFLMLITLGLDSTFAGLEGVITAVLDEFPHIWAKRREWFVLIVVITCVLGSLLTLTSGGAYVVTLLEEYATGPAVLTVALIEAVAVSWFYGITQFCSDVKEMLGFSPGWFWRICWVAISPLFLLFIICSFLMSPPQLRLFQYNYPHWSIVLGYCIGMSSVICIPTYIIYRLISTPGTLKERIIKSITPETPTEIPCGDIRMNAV

In the case of `O=c1c2cc(Cl)ccc2ncn1CCCN1CCC(c2c[nH]c3ccccc23)CC1` [Example 11, 6-chloro-3-{3-[4-(1H-indol-3-yl)-1-piperidinyl]propyl}-4(3H)-quinazolinone], at 5-HT transporter (setting [1]), the Ki was 40 nM. For the same molecule, 1 µM produced 26% inhibition at human 5-HT1A receptors. Further, the IC50 at Human 5-HT Transporter (setting [2]) worked out at 1910 nM.
As to `Cn1cc(C2CCN(CCn3nnc4ccccc4c3=O)CC2)c2ccccc21` [Example 18, 3-{2-[4-(1-methyl-1H-indol-3-yl)-1-piperidinyl]ethyl}-1,2,3-benzotriazin-4(3H)-one], the figures for the Ki on 5-HT transporter (setting [1]) and at human 5-HT1A receptors were 21 nM and 80.9 nM, respectively. For the same molecule, the IC50 at Human 5-HT Transporter (setting [2]) came to 231 nM.
`Cn1cc(C2CCN(CCn3cnc4ccccc4c3=O)CC2)c2ccccc21` [Example 14, 3-{2-[4-(1-methyl-1H-indol-3-yl)-1-piperidinyl]ethyl}4-(3H)-quinazolinone] returned a melting point of 78 °C. Further, the Ki at 5-HT transporter (setting [1]) is 116 nM. The molecule also gave an inhibition at 1 µM at human 5-HT1A receptors of 43%. For the same molecule, the half-inhibitory concentration (IC50) on Human 5-HT Transporter (setting [2]) came to 1480 nM.
For the molecule `O=c1c2ccccc2nnn1CCN1CC=C(c2c[nH]c3ccccc23)CC1` [Example 16, 3-[2-(4-(1H-indol-3-yl)-3,6-dihydro-1(2H)-pyridinyl)ethyl]-1,2,3-benzotriazin-4(3H)-one], the Ki on 5-HT transporter (setting [1]) was found to be 3.52 nM; at human 5-HT1A receptors, 56.7 nM. Moreover, the IC50 on Human 5-HT Transporter (setting [2]) was 37.5 nM.
With `O=c1n(CCCCN2CC=C(c3c[nH]c4ccccc34)CC2)nc2ccccn12`, the melting point was 123.2 °C.
The same measure, in the same setting: for `O=c1n(CCN2CCC(c3c[nH]c4ccccc34)CC2)nc2ccccn12` [Example 25, 2-{2-[4-(1H-Indol-3-yl)-piperidin-1-yl]-ethyl}-2H-[1,2,4]triazolo[4,3-a]pyridin-3-one] the value was 142 °C.
Consider `COc1cc2ncn(CCCN3CC=C(c4c[nH]c5ccc(F)cc45)CC3)c(=O)c2cc1OC` [Example 8, 3-[3-(4-(5-fluoro-1H-indol-3-yl)-3,6-dihydro-1(2H)-pyridinyl)propyl]-6-7-dimethoxy-4(3H)-quinazolinone], for which the melting point came to 120 °C. Besides, the Ki on 5-HT transporter came out at 1.92 nM. The same molecule displayed an inhibition at 1 µM on human 5-HT1A receptors of 31%.
Consider `O=c1c2ccccc2nnn1CCCN1CC=C(c2c[nH]c3ccccc23)CC1` [Example 19, 3-[3-(4-(1H-indol-3-yl)-3,6-dihydro-1(2H)-pyridinyl)propyl]-1,2,3-benzotriazin-4(3H)-one], for which the Ki on 5-HT transporter was found to be 0.15 nM; at human 5-HT1A receptors, 315 nM. The molecule also displayed an IC50 against Human 5-HT Transporter of 15.7 nM.
Regarding `COc1cc2ncn(CCCN3CCC(c4c[nH]c5ccccc45)CC3)c(=O)c2cc1OC` [Example 7, 3-{3-(4-(1H-indol-3-yl)-1-piperidinyl]propyl}-6-7-dimethoxy-4(3H)-quinazolinone], the Ki at 5-HT transporter (setting [1]) is 11 nM; at human 5-HT1A receptors it was 201 nM. At Human 5-HT Transporter (setting [2]), the IC50 was 173 nM.
The molecule `O=c1n(CCCN2CC=C(c3c[nH]c4ccccc34)CC2)nc2ccccn12` had a melting point of 173.3 °C.
Consider `COc1cc2ncn(CCN3CCC(c4c[nH]c5ccccc45)CC3)c(=O)c2cc1OC` [Example 2, 3-{2-[4-(1H-indol-3-yl)-1-piperidinyl]ethyl}-6-7-dimethoxy-4(3H)-quinazolinone], for which the melting point was determined as 230 °C. In addition, the Ki on 5-HT transporter (setting [1]) amounted to 36 nM. Besides, on human 5-HT1A receptors, the Ki worked out at 72.1 nM. On Human 5-HT Transporter (setting [2]), the IC50 is 273 nM.
Consider `COc1cc2ncn(CCCN3CC=C(c4c[nH]c5ccccc45)CC3)c(=O)c2cc1OC` [Example 6, 3-[3-(4-(1H-indol-3-yl)-3,6-dihydro-1(2H)-pyridinyl)propyl]-6-7-dimethoxy-4(3H)-quinazolinone], for which the Ki was determined as 0.8 nM on 5-HT transporter and 286 nM at human 5-HT1A receptors. This molecule also yielded an IC50 at Human 5-HT Transporter of 43.2 nM.
In the case of `O=c1c2ccccc2nnn1CCN1CCC(c2c[nH]c3ccccc23)CC1` [Example 17, 3-{2-[4-(1H-indol-3-yl)-1-piperidinyl)ethyl}-1,2,3-benzotriazin-4(3H)-one], the Ki on 5-HT transporter (setting [1]) came out at 16 nM; on human 5-HT1A receptors it was 119 nM. The IC50 at Human 5-HT Transporter (setting [2]) stood at 190 nM.
In turn, `O=c1c2cc(Cl)cc(Br)c2ncn1CCCN1CC=C(c2c[nH]c3ccccc23)CC1` [Example 9, 8-bromo-6-chloro-3-[3-(4-(1H-indol-3-yl)-3,6-dihydro-1(2H)-pyridinyl)propyl]-4(3H)-quinazolinone] yielded a melting point of 192 °C. The molecule further yielded a Ki at 5-HT transporter of 0.31 nM. On human 5-HT1A receptors, this molecule registered an inhibition at 1 µM of 4%.
Molecule `O=c1n(CCN2CC=C(c3c[nH]c4ccccc34)CC2)nc2ccccn12` gave a melting point of 170.4 °C.
As for `Cn1cc(C2=CCN(CCCn3nnc4ccccc4c3=O)CC2)c2ccccc21` [Example 21, 3-[3-(4-(1-methyl-1H-indol-3-yl)-3,6-dihydro-1(2H)-pyridinyl)propyl]-1,2,3-benzotriazin-4(3H)-one], the melting point was 70 °C. The Ki on 5-HT transporter came out at 0.56 nM. In addition, the inhibitory constant (Ki) on human 5-HT1A receptors came out at 631 nM.
For the molecule `O=c1c2ccccc2nnn1CCCN1CCC(c2c[nH]c3ccccc23)CC1` [Example 20, 3-{3-[4-(1H-indol-3-yl)-1-piperidin]propyl}-1,2,3-benzotriazin-4(3H)-one], the Ki on 5-HT transporter (setting [1]) was 10 nM. Besides, 1 µM produced 49% inhibition at human 5-HT1A receptors.
For the molecule `O=c1c2ccccc2ncn1CCN1CCC(c2c[nH]c3ccccc23)CC1` [Example 13, 3-{2-[4-(1H-indol-3-yl)-1-piperidinyl]ethyl}-4(3H)-quinazolinone], the Ki on 5-HT transporter (setting [1]) worked out at 37 nM. The same molecule yielded an inhibition at 1 µM at human 5-HT1A receptors of 42%. Also, at Human 5-HT Transporter (setting [2]), the IC50 worked out at 651 nM.
Consider `COc1cc2ncn(CCCCN3CC=C(c4c[nH]c5ccccc45)CC3)c(=O)c2cc1OC` [Example 4, 3-[4-(4-(1H-indol-3-yl)-3,6-dihydro-1(2H)-pyridinyl)butyl]-6-7-dimethoxy-4(3H)-quinazolinone], for which the Ki at 5-HT transporter was 1.25 nM; on human 5-HT1A receptors, 215 nM. In addition, the IC50 on Human 5-HT Transporter (setting [2]) came out at 132 nM.
On to `O=c1n(CCCN2CCC(c3c[nH]c4ccccc34)CC2)nc2ccccn12` [Example 23, 2-{3-[4-(1H-Indol-3-yl)-piperidin-1-yl]-propyl}-2H-[1,2,4]triazolo[4,3-a]pyridin-3-one], for which the melting point was 111.7 °C.
On to `O=c1c2cc(Cl)ccc2ncn1CCCN1CC=C(c2c[nH]c3ccccc23)CC1` [Example 10, 6-chloro-3-[3-(4-(1H-indol-3-yl)-3,6-dihydro-1(2H)-pyridinyl)propyl]-4(3H)-quinazolinone], for which affinity at 5-HT transporter was put at a Ki of 1.14 nM. On human 5-HT1A receptors, this molecule displayed an inhibition at 1 µM of 7%. Besides, at Human 5-HT Transporter (setting [2]), the IC50 was 268 nM.
Turning to `COc1cc2ncn(CCCCN3CCC(c4c[nH]c5ccccc45)CC3)c(=O)c2cc1OC` [Example 5, 3-{4-[4-(1H-indol-3-yl)-1-piperdinyl]butyl}-6,7-dimethoxy-4(3H)-quinazolinone], the Ki came to 4.12 nM on 5-HT transporter (setting [1]) and 86.8 nM on human 5-HT1A receptors. In addition, at Human 5-HT Transporter (setting [2]), the IC50 was determined as 55.3 nM.
Consider `O=c1c2ccccc2ncn1CCN1CC=C(c2c[nH]c3ccccc23)CC1` [Example 12, 3-[2-(4-(1H-indol-3-yl)-3,6-dihydro-1(2H)-pyridinyl)ethyl]-4(3H)-quinazolinone], for which the Ki on 5-HT transporter (setting [1]) is 5.5 nM; on human 5-HT1A receptors, 38.2 nM. On Human 5-HT Transporter (setting [2]), the IC50 was 88.1 nM.
In the case of `COc1cc2ncn(CCN3CC=C(c4c[nH]c5ccc(F)cc45)CC3)c(=O)c2cc1OC` [Example 3, 3-[2-(4-(5-fluoro-1H-indol-3-yl)-3,6-dihydro-1(2H)-pyridinyl)ethyl]-6-7-dimethoxy-4(3H)-quinazolinone], the melting point stood at 210 °C. Further, the Ki on 5-HT transporter (setting [1]) came to 4.57 nM. Further, the Ki on human 5-HT1A receptors was found to be 82.2 nM.

Broadly, the Ki is a dissociation constant, usually derived from enzyme kinetics or from competition with a known ligand. In general, inhibition refers to how much of the control response was suppressed. A higher inhibition goes with a response far below the control. The IC50 is the concentration that gives 50% inhibition. The term melting point denotes the temperature, or range, at which the solid turns liquid.
